{"source": "patent US20200368205A1", "about": "“METHODS AND COMBINATION THERAPY TO TREAT CANCER” (ARRAY BIOPHARMA INC., priority 2018, published 2020)", "key": {"A375 (BRAF V600E) cells": {"system": "A375 (BRAF V600E) cells", "test": "MHC class I cell surface expression, flow cytometry", "type": "cell-based, human", "conditions": "72 hours", "method": "(§1) The goal of this study was to measure the effects of binimetinib on cell surface MHC class I expression in various melanoma cell lines. In this study, eight melanoma cell lines were evaluated: MEL-JUSO (NRAS Q61L mutation), IPC-298 (NRAS Q61L mutation), A375 (BRAF V600E, homozygous mutation), HS936.T (NRAS Q61K mutation and BRAF N581K mutation), MM485 (NRAS Q61R mutation), SK-MEL-2 (NRAS Q61R mutation), MM415 (NRAS Q61L mutation), Malme-3M (BRAF V600E, heterozygous mutation). The cells lines were seeded into flat bottom 96-well tissue culture plates at a density of 5000 cells per well and allowed to adhere overnight. The following day cells were treated with vehicle control (0.25% DMSO) or varying dilutions of Binimetinib (0.7 nM-25000 nM) for 1 hour. Cells were then treated with vehicle control or 100 ng/ml IFNgamma (R&D systems) for 72 hours. Cells were washed, trypsinized, and stained with Alexa Fluor® 647 anti-human HLA-A,B,C antibody (W6/32, eBioscience) and analyzed on a BD FACSCanto II flow cytometer. An IFNg titration and time course were performed for assay optimization. Maximal induction of MHC class I expression was seen ˜100 ng/mL of IFNγ (see, e.g., FIGS. 1 and 2)."}, "[1]": {"system": "HS936.T (NRAS Q61K, BRAF N581K) cells", "test": "MHC class I cell surface expression, flow cytometry", "type": "cell-based, human", "conditions": "72 hours", "method": "as §1"}, "IPC298 (NRAS Q61L) cells": {"system": "IPC298 (NRAS Q61L) cells", "test": "MHC class I cell surface expression, flow cytometry", "type": "cell-based, human", "conditions": "72 hours", "method": "as §1"}, "[2]": {"system": "MELJUSO (NRAS Q61L) cells", "test": "MHC class I cell surface expression, flow cytometry", "type": "cell-based, human", "conditions": "for Maximal Fold Increase in MHC Class I Expression: MELJUSO (NRAS Q61L), 72 hours", "method": "as §1"}, "MM415 (NRAS Q61L) cells": {"system": "MM415 (NRAS Q61L) cells", "test": "MHC class I cell surface expression, flow cytometry", "type": "cell-based, human", "conditions": "72 hours", "method": "as §1"}, "MM485 (NRAS Q61R) cells": {"system": "MM485 (NRAS Q61R) cells", "test": "MHC class I cell surface expression, flow cytometry", "type": "cell-based, human", "conditions": "72 hours", "method": "as §1"}, "[3]": {"system": "Malme-3M (BRAF V600E) cells", "test": "MHC class I cell surface expression, flow cytometry", "type": "cell-based, human", "conditions": "72 hours", "method": "as §1"}, "[4]": {"system": "SKMEL-2 (NRAS Q61R) cells", "test": "MHC class I cell surface expression, flow cytometry", "type": "cell-based, human", "conditions": "72 hours", "method": "as §1"}, "Cloudman S91 tumors": {"system": "Cloudman S91 tumors", "test": "Growth of Cloudman S91 melanoma tumors", "type": "in vivo"}}, "data": [{"smiles": "Cn1cnc2c(F)c(Nc3ccc(Br)cc3F)c(C(=O)NOCCO)cc21", "note": "[Binimetinib, 6-(4-bromo-2-fluorophenylamino)-7-fluoro-3-methyl-3H-benzoimidazole-5-carboxylic acid (2-hydroxyethoxy)-amide]", "values": [{"measurement": "Maximal Fold Increase in MHC Class I Expression", "setting": "A375 (BRAF V600E) cells; +IFNg 100 ng/ml", "result": 4, "unit": "fold"}, {"measurement": "Maximal Fold Increase in MHC Class I Expression", "setting": "A375 (BRAF V600E) cells; −IFNg", "result": 2, "unit": "fold"}, {"measurement": "Maximal Fold Increase in MHC Class I Expression", "setting": "[1]; +IFNg 100 ng/ml", "result": 2, "unit": "fold"}, {"measurement": "Maximal Fold Increase in MHC Class I Expression", "setting": "[1]; −IFNg", "result": 1.5, "unit": "fold"}, {"measurement": "Maximal Fold Increase in MHC Class I Expression", "setting": "IPC298 (NRAS Q61L) cells; +IFNg 100 ng/ml", "result": 3, "unit": "fold"}, {"measurement": "Maximal Fold Increase in MHC Class I Expression", "setting": "IPC298 (NRAS Q61L) cells; −IFNg", "result": 2, "unit": "fold"}, {"measurement": "increase in MHC class I expression", "setting": "[2]; MELJUSO (NRAS Q61L) cells, binimetinib alone, FIG. 5A", "result": 2.5, "unit": "fold"}, {"measurement": "enhancement of IFNγ-induced MHC class I expression", "setting": "[2]; MELJUSO (NRAS Q61L) cells, in the presence of 100 ng/mL IFNg", "result": "4-5 fold"}, {"measurement": "Maximal Fold Increase in MHC Class I Expression", "setting": "[2]; +IFNg 100 ng/ml", "result": 4, "unit": "fold"}, {"measurement": "Maximal Fold Increase in MHC Class I Expression", "setting": "[2]; −IFNg", "result": 3, "unit": "fold"}, {"measurement": "Maximal Fold Increase in MHC Class I Expression", "setting": "MM415 (NRAS Q61L) cells; +IFNg 100 ng/ml", "result": 2, "unit": "fold"}, {"measurement": "Maximal Fold Increase in MHC Class I Expression", "setting": "MM415 (NRAS Q61L) cells; −IFNg", "result": 0, "unit": "fold"}, {"measurement": "Maximal Fold Increase in MHC Class I Expression", "setting": "MM485 (NRAS Q61R) cells; +IFNg 100 ng/ml", "result": 2, "unit": "fold"}, {"measurement": "Maximal Fold Increase in MHC Class I Expression", "setting": "MM485 (NRAS Q61R) cells; −IFNg", "result": 2, "unit": "fold"}, {"measurement": "Maximal Fold Increase in MHC Class I Expression", "setting": "[3]; +IFNg 100 ng/ml", "result": 1.5, "unit": "fold"}, {"measurement": "Maximal Fold Increase in MHC Class I Expression", "setting": "[3]; −IFNg", "result": 0, "unit": "fold"}, {"measurement": "Maximal Fold Increase in MHC Class I Expression", "setting": "[4]; +IFNg 100 ng/ml", "result": 1.5, "unit": "fold"}, {"measurement": "Maximal Fold Increase in MHC Class I Expression", "setting": "[4]; −IFNg", "result": 2, "unit": "fold"}, {"measurement": "Cures (day 44)", "setting": "Cloudman S91 tumors", "result": "0/10"}, {"measurement": "Deaths", "setting": "Cloudman S91 tumors", "result": "0/10"}, {"measurement": "% TGI (day 8)", "setting": "Cloudman S91 tumors; DBA/2 mice, binimetinib 30 mg/kg, anti-PD-1 100 μg", "result": "−17", "unit": "%"}, {"measurement": "Max % BWL", "setting": "Cloudman S91 tumors; vehicle 12.4", "result": 4.8, "unit": "%"}, {"measurement": "Median Survival", "setting": "Cloudman S91 tumors; vehicle 13", "result": 11}]}]}
